From paper PMC9235892 (Virulence, 2022)

System: SARS-CoV-2 169 R
Assay type: cell-based

SMILES | effect on viral load in 169 R-infected cultures (plaque assay)
CN1CCN(C[C@@H](O)CO[C@H]2CC[C@@]3(C)C(CCC4C3CC[C@]3(C)C(=O)CCC43)C2)CC1 (some centres unmarked) [LNB169] | no reduction in viral load
CN1CCN(C[C@H](O)CO[C@H]2CC[C@@]3(C)C(CCC4C3CC[C@]3(C)C(=O)CCC43)C2)CC1 (some centres unmarked) [LNB167] | no reduction in viral load
